# ChEMBL document CHEMBL3259796, “Synthesis and in-vivo hypolipidemic activity of some novel substituted phenyl isoxazol phenoxy acetic acid derivatives” (Bioorg Med Chem Lett, 2014)
# How the values were obtained:
# [1] = Retardation factor of the compound using chloroform/methanol at 4:1 ratio; type: physicochemical
# [2] = Retardation factor of the compound using ethyl acetate/n-hexane at 1:1 ratio; type: physicochemical
# [3] = test system: Rattus norvegicus; assay: Hypolipidemic activity in triton WR-1339 Wistar rat assessed as total cholesterol at 250 mg/kg, po for 7 days (reference value: 209 +/- 1.45 mg/dl); type: functional
# [4] = test system: Rattus norvegicus; assay: Hypolipidemic activity in triton WR-1339 Wistar rat assessed as low-density lipoprotein at 250 mg/kg, po for 7 days (reference value: 154 +/- 1.82 mg/dl); type: functional
# [5] = test system: Rattus norvegicus; assay: Hypolipidemic activity in triton WR-1339 Wistar rat assessed as very low-density lipoprotein at 250 mg/kg, po for 7 days (reference value: 38 +/- 1.80 mg/dl); type: functional
# [6] = test system: Rattus norvegicus; assay: Hypolipidemic activity in triton WR-1339 Wistar rat assessed as atherogenic index at 250 mg/kg, po for 7 days (reference value: 10.18 no unit); type: functional
# [7] = test system: Rattus norvegicus; assay: Hypolipidemic activity in triton WR-1339 Wistar rat assessed as increase in protection at 250 mg/kg, po for 7 days; type: functional
# [8] = test system: Rattus norvegicus; assay: Hypolipidemic activity in triton WR-1339 Wistar rat assessed as high-density lipoprotein at 250 mg/kg, po for 7 days (reference value: 17 +/- 1.70 mg/dl); type: functional
# [9] = test system: Rattus norvegicus; assay: Hypolipidemic activity in triton WR-1339 Wistar rat assessed as triglyceride at 250 mg/kg, po for 7 days (reference value: 190 +/- 1.98 mg/dl); type: functional
SMILES,Rf [1],Rf [2],Activity [3],Activity [4],Activity [5],AI [6],Activity [7],Activity [8],Activity [9]
O=C(/C=C/c1ccco1)c1ccc(O)cc1,0.61,,,,,,,,
O=C(/C=C/c1ccccc1O)c1ccccc1,0.49,,,,,,,,
COc1cc(/C=C/C(=O)c2ccc(O)cc2)cc(OC)c1OC,0.48,,,,,,,,
O=C(/C=C/c1ccccc1Cl)c1ccc(O)cc1,0.6,,,,,,,,
O=C(/C=C/c1ccc(O)cc1)c1ccc(F)cc1,0.62,,,,,,,,
COc1ccccc1/C=C/C(=O)c1ccc(O)cc1,0.51,,,,,,,,
COc1cc(-c2cc(-c3ccccc3)on2)ccc1O,,0.57,,,,,,,
Oc1ccccc1-c1cc(-c2ccccc2)on1,,0.6,,,,,,,
Oc1ccc(-c2cc(-c3ccc(F)cc3)on2)cc1,,0.5,,,,,,,
COc1ccccc1-c1cc(-c2ccc(O)cc2)on1,,0.59,,,,,,,
COc1cc(-c2cc(-c3ccc(O)cc3)on2)cc(OC)c1OC,,0.63,,,,,,,
Oc1ccc(-c2cc(-c3ccccc3Cl)no2)cc1,,0.6,,,,,,,
Oc1ccc(-c2cc(-c3c(Cl)cccc3Cl)no2)cc1,,0.58,,,,,,,
Oc1ccc(-c2cc(-c3ccco3)no2)cc1,,0.61,,,,,,,
Oc1ccc(-c2cc(-c3ccccc3)no2)cc1,,0.56,,,,,,,
Oc1ccc(-c2cc(-c3ccc(Cl)cc3)no2)cc1,,0.6,,,,,,,

SMILES,Rf [1],Rf [2],Activity [3],Activity [4],Activity [5],AI [6],Activity [7],Activity [8],Activity [9]
COc1cc(-c2cc(-c3ccccc3)on2)ccc1OCC(=O)O,,0.56,94 mg/dL,25 mg/dL,23 mg/dL,1.5,85.27%,46 mg/dL,115 mg/dL
O=C(O)COc1ccccc1-c1cc(-c2ccccc2)on1,,0.52,91 mg/dL,23.3 mg/dL,25.2 mg/dL,1.91,81.24%,42.5 mg/dL,123.5 mg/dL
O=C(O)COc1ccc(-c2cc(-c3ccc(F)cc3)on2)cc1,,0.52,81 mg/dL,16.4 mg/dL,21.1 mg/dL,1.43,85.95%,43.5 mg/dL,105.5 mg/dL
COc1ccccc1-c1cc(-c2ccc(OCC(=O)O)cc2)on1,,0.45,77.5 mg/dL,10.5 mg/dL,23.5 mg/dL,1.64,83.89%,44.5 mg/dL,117.5 mg/dL
COc1cc(-c2cc(-c3ccc(OCC(=O)O)cc3)on2)cc(OC)c1OC,,0.51,82.5 mg/dL,29 mg/dL,25.5 mg/dL,2.09,79.47%,40.5 mg/dL,125 mg/dL
O=C(O)COc1ccc(-c2cc(-c3ccccc3Cl)no2)cc1,,0.48,148.5 mg/dL,86.5 mg/dL,22 mg/dL,1.75,82.81%,40 mg/dL,110 mg/dL
O=C(O)COc1ccc(-c2cc(-c3c(Cl)cccc3Cl)no2)cc1,,0.5,90 mg/dL,22.8 mg/dL,22.7 mg/dL,1.55,84.77%,44.5 mg/dL,113.5 mg/dL
O=C(O)COc1ccc(-c2cc(-c3ccco3)no2)cc1,,0.46,87 mg/dL,22.4 mg/dL,22.6 mg/dL,1.69,83.4%,42 mg/dL,113 mg/dL
O=C(O)COc1ccc(-c2cc(-c3ccccc3)no2)cc1,,0.56,88 mg/dL,11.1 mg/dL,26.4 mg/dL,2.26,77.8%,40.5 mg/dL,132 mg/dL
O=C(O)COc1ccc(-c2cc(-c3ccc(Cl)cc3)no2)cc1,,0.53,83.5 mg/dL,16.2 mg/dL,26.3 mg/dL,2.21,78.29%,41 mg/dL,131.5 mg/dL
COc1cc(/C=C/C(=O)c2ccccc2)ccc1O,0.54,,,,,,,,
O=C(/C=C/c1ccc(Cl)cc1)c1ccc(O)cc1,0.56,,,,,,,,
O=C(/C=C/c1c(Cl)cccc1Cl)c1ccc(O)cc1,0.52,,,,,,,,
O=C(/C=C/c1ccccc1)c1ccc(O)cc1 [4'-HYDROXYCHALCONE],0.53,,,,,,,,
CC(C)OC(=O)C(C)(C)Oc1ccc(C(=O)c2ccc(Cl)cc2)cc1 [FENOFIBRATE],,,116.5 mg/dL,48.2 mg/dL,23.8 mg/dL,,83.6%,44.5 mg/dL,119 mg/dL
